The text below walks through data of US11913020B2, “Method for improving stem cell migration using ethionamide” (Samsung Life Public Welfare Foundation, priority 2017, dated 2024).

The subject of assay [1] is human umbilical cord mesenchymal stem cells. The note with it: ethionamide 10 or 100 μM, 24 hours incubation; scratch observed after 14 hours; compared to control not treated. How it is done: To this end, human umbilical cord mesenchymal stem cells (5×10^4 cells) prepared according to the method described in Example 1 were dispensed into a 6-well plate, and simultaneously treated with ethionamide at 10 or 100 μM, followed by incubation for 24 hours. Subsequently, to inhibit cell proliferation, the cells were treated with mitomycin C at 10 μg/mL to allow a reaction for 2 hours, a scratch was made on the plate using a tip, followed by exchanging the medium with a fresh medium.

The test system is the same in assay [2]. The note with it: ethionamide 10 or 100 μM, 24 hours incubation; compared to control not treated. Here is the method: To this end, the human umbilical cord mesenchymal stem cells (5×10^4 cells) prepared by the method described in Example 1 were dispensed into a Transwell plate (Costar, USA) with an 8.0 μm pore size, and treated with ethionamide at 10 or 100 μM, followed by incubation for 24 hours. Subsequently, the cells were fixed with 4% paraformaldehyde and stained with hematoxylin, the inner side of the Transwell was wiped with a cotton tip, and then the number of cells present on the bottom surface of the Transwell was measured using a microscope.

A further assay has as its system CXCR4. The note with it: treated with ethionamide for 72 hours; compared with stem cells not treated (Control).

SMILES strings stand for the structures.

Method for CXCR4: To this end, the human mesenchymal stem cells prepared according to the method described in Example 1 were treated with ethionamide for 72 hours, and then lysed with TRIzol (Ambion, USA). Subsequently, following the addition of chloroform (Sigma Aldrich, USA) and centrifugation, only a supernatant was transferred to a new tube, treated with isopropanol (Amresco, USA), and centrifuged to precipitate RNA. Afterward, the precipitated RNA was treated with 75% ethanol (Merck Millipore, USA) for washing, and the completely dried RNA was dissolved in DEPC water (Biosesang, Korea). 5 μg of RNA extracted from the human mesenchymal stem cells treated or not treated with ethionamide by the above-described method was used for cDNA synthesis, and here, for the cDNA synthesis, a cDNA synthesis kit (Invitrogen, USA) was used. Afterward, 10 pM of a primer (Bioneer, Korea) specific for CXCR4, which is a gene related to stem cell migration, and a SYBR green master mix (Applied Biosystems, USA) were added to the synthesized cDNA, and cDNA was amplified using a real time-PCR device (Applied Biosystems, USA), followed by assessment of the amplified result to measure an initial amount of cDNA.

As for `CCc1cc(C(N)=S)ccn1` [ethionamide, 2-ethylpyridine-4-carbothioamide], in assay [1], the “migration ability of human mesenchymal stem cells (number of migrating stem cells)” value is listed as “significantly increased”. Further, in assay [2], the “invasion ability of human mesenchymal stem cells (number of cells on bottom surface of Transwell)” value is listed as “significantly increased”. Further, the “expression level of the CXCR4 gene” value in the assay with CXCR4 is listed as “at least 4 fold”.
